According to US10168342B2, “Lipid probes and uses thereof” (THE SCRIPPS RESEARCH INSTITUTE, priority 2015, dated 2019):

Experiments:
Assay in all cases: isoTOP-ABPP mapping of AEA-DA-modified peptides in Neuro2a cells
Format in all cases: cell-based
[1] = target: T1, AEA-DA-modified peptides in Neuro2a cells (Mus musculus, UniProt Q91YE6); conditions: AEA-DA-modified peptide IPO9 Q91YE6 777-788, SEQ ID NO 54; probe 100 μM, 12 replicates
T1 construct: endogenous in cells; host or cells: Neuro2a

[2] = target: T2, AEA-DA-modified peptides in Neuro2a cells (Mus musculus, UniProt P61759); conditions: AEA-DA-modified peptide VBP1 P61759 153-178, SEQ ID NO 119; probe 100 μM, 12 replicates
T2 construct: endogenous in cells; host or cells: Neuro2a

[3] = target: T3, AEA-DA-modified peptides in Neuro2a cells (Mus musculus, UniProt Q9JKF7); conditions: AEA-DA-modified peptide MRPL39 Q9JKF7 154-166, SEQ ID NO 61; probe 100 μM, 12 replicates
T3 construct: endogenous in cells; host or cells: Neuro2a

[4] = target: T4, AEA-DA-modified peptides in Neuro2a cells (Mus musculus, UniProt P81117); conditions: AEA-DA-modified peptide NUCB2 P81117 60-73, SEQ ID NO 72; probe 100 μM, 12 replicates
T4 construct: endogenous in cells; host or cells: Neuro2a

[5] = target: T5, AEA-DA-modified peptides in Neuro2a cells (Mus musculus, UniProt O88545); conditions: AEA-DA-modified peptide COPS6 O88545 274-295, SEQ ID NO 24; probe 100 μM, 12 replicates
T5 construct: endogenous in cells; host or cells: Neuro2a

[6] = target: T6, AEA-DA-modified peptides in Neuro2a cells (Mus musculus, UniProt P57776); conditions: AEA-DA-modified peptide EEF1D P57776 25-39, SEQ ID NO 35; probe 100 μM, 12 replicates
T6 construct: endogenous in cells; host or cells: Neuro2a

[7] = target: T7, AEA-DA-modified peptides in Neuro2a cells (Mus musculus, UniProt P21619); conditions: AEA-DA-modified peptide LMNB2 P21619 137-160, SEQ ID NO 57; probe 100 μM, 12 replicates
T7 construct: endogenous in cells; host or cells: Neuro2a

[8] = target: T8, AEA-DA-modified peptides in Neuro2a cells (Mus musculus, UniProt P19157); conditions: AEA-DA-modified peptide GSTP1 P19157 104-117, SEQ ID NO 46; probe 100 μM, 12 replicates
T8 construct: endogenous in cells; host or cells: Neuro2a

[9] = target: T9, AEA-DA-modified peptides in Neuro2a cells (Mus musculus, UniProt Q99P72); conditions: AEA-DA-modified peptide RTN4 Q99P72 1045-106, SEQ ID NO 94; probe 100 μM, 12 replicates
T9 construct: endogenous in cells; host or cells: Neuro2a

[10] = target: T10, AEA-DA-modified peptides in Neuro2a cells (Mus musculus, UniProt Q9DBL9); conditions: AEA-DA-modified peptide ABHD5 Q9DBL9 321-343, SEQ ID NO 2; probe 100 μM, 12 replicates
T10 construct: endogenous in cells; host or cells: Neuro2a

[11] = target: T11, AEA-DA-modified peptides in Neuro2a cells (Mus musculus, UniProt P42208); conditions: AEA-DA-modified peptide SEPT2 P42208 78-92, SEQ ID NO 98; probe 100 μM, 12 replicates
T11 construct: endogenous in cells; host or cells: Neuro2a

[12] = target: T12, AEA-DA-modified peptides in Neuro2a cells (Mus musculus, UniProt P67778); conditions: AEA-DA-modified peptide PHB P67778 5-12, SEQ ID NO 85; probe 100 μM, 12 replicates
T12 construct: endogenous in cells; host or cells: Neuro2a
T12 sequence (P67778 whole entry): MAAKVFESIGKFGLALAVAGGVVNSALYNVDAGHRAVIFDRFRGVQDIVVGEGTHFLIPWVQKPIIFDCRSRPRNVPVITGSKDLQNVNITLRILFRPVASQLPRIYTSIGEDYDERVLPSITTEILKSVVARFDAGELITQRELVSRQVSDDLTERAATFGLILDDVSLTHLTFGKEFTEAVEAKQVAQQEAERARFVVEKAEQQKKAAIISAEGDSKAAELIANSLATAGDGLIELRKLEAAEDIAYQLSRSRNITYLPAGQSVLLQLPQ

T4 sequence (P81117 25-420): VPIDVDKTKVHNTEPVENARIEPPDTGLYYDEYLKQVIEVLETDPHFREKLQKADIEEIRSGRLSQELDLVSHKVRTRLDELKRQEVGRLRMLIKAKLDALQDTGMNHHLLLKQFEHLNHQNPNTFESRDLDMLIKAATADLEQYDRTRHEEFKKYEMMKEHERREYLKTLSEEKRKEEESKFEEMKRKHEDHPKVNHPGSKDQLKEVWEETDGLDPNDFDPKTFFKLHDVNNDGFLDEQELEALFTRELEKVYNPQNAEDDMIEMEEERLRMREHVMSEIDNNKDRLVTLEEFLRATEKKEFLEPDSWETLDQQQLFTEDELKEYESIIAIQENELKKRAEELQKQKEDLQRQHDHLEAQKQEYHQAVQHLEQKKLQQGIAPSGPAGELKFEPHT
T7 sequence (P21619 whole entry): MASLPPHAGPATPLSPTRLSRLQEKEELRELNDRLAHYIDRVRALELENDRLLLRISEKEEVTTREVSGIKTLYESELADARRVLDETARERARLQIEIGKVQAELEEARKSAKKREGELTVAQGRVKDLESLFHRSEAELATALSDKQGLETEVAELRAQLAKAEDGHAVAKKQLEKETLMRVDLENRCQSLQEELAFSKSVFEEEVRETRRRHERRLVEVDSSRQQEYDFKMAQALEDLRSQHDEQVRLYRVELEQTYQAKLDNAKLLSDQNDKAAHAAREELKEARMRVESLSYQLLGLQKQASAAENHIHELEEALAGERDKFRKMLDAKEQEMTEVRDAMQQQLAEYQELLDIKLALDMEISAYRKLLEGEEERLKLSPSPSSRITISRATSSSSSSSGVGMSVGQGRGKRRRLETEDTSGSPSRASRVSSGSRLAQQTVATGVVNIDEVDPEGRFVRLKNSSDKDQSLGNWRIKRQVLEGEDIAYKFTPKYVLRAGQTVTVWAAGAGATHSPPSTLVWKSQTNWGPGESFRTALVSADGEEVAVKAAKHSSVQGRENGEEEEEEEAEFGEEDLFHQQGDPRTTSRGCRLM
T10 sequence (Q9DBL9 whole entry): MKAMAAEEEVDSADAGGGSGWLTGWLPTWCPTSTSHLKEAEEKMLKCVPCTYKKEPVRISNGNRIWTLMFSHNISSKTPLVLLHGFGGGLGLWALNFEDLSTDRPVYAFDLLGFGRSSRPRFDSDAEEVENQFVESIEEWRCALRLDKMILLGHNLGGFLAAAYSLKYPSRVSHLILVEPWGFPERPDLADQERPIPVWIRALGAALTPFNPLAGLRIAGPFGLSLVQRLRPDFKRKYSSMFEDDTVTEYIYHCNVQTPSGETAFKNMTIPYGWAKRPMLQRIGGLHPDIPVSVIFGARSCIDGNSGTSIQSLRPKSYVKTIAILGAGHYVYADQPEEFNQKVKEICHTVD
T6 sequence (P57776 whole entry): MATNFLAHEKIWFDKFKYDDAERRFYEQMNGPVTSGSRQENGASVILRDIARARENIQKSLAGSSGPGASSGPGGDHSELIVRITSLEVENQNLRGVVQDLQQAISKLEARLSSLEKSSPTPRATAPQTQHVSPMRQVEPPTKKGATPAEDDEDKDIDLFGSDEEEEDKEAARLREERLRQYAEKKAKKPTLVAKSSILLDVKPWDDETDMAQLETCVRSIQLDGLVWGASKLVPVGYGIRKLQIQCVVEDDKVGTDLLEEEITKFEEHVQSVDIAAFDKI
T1 sequence (Q91YE6 whole entry): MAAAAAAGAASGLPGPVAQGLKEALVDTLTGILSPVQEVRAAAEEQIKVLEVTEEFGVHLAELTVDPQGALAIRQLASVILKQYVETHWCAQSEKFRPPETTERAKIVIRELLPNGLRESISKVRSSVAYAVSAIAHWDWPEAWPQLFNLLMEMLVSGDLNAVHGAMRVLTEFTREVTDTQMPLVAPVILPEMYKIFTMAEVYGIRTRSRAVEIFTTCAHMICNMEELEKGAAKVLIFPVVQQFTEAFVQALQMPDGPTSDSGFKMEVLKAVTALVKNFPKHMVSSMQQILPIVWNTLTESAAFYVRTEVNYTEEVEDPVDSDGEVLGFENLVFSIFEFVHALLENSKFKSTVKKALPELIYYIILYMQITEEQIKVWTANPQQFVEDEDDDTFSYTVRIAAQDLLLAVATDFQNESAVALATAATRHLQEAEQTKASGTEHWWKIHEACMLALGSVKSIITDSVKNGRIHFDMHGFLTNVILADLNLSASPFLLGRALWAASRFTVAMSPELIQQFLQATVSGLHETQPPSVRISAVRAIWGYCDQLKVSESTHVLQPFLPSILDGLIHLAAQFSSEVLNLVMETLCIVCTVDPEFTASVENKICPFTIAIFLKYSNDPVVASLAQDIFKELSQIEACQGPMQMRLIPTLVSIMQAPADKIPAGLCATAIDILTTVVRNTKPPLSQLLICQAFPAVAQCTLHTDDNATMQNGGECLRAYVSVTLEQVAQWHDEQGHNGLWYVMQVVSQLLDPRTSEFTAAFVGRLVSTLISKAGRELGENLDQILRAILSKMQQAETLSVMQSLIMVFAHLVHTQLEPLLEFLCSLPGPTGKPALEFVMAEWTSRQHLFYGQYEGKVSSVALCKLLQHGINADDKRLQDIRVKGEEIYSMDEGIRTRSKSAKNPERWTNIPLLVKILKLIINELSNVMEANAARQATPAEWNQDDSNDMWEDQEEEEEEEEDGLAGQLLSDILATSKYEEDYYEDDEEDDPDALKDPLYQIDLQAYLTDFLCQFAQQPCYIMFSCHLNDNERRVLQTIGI
T9 sequence (Q99P72 whole entry): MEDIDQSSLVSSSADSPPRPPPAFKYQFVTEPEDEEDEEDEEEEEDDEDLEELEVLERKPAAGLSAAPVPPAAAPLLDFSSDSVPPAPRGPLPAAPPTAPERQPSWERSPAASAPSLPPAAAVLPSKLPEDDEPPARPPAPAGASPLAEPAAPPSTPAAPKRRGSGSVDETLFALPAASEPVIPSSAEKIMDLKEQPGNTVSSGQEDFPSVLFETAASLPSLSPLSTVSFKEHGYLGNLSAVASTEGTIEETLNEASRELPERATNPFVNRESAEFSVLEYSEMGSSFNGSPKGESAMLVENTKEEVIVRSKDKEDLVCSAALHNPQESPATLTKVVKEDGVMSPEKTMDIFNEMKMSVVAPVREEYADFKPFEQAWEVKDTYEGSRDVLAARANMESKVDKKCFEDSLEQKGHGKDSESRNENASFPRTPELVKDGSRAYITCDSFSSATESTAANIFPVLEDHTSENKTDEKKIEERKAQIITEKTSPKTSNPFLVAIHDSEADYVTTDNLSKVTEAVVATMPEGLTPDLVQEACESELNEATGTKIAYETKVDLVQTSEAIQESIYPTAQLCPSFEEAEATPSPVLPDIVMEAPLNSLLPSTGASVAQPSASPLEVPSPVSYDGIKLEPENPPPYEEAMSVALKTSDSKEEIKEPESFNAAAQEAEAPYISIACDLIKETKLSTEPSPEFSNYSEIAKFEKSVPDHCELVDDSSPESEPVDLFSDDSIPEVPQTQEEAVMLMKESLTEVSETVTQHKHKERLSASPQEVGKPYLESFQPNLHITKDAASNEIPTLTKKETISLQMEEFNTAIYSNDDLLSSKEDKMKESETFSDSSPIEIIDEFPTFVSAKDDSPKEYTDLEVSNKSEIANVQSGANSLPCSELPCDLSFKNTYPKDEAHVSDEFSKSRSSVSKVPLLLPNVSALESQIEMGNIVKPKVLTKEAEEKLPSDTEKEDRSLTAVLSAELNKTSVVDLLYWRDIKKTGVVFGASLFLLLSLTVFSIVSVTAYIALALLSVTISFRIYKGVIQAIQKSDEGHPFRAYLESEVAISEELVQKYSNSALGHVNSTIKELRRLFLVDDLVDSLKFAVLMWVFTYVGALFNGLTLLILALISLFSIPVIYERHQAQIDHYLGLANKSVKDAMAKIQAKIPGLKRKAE
T2 sequence (P61759 whole entry): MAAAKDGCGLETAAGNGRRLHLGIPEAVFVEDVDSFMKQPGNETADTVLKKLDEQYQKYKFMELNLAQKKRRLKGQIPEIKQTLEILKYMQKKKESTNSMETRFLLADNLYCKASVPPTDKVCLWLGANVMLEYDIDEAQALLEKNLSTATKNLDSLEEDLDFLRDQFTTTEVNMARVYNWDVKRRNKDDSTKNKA
T8 sequence (P19157 whole entry): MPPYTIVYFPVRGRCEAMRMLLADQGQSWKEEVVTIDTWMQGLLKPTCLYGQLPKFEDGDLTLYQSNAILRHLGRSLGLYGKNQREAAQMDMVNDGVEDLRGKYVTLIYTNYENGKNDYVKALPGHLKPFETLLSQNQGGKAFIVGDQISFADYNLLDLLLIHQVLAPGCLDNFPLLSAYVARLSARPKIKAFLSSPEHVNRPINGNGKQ
T11 sequence (P42208 whole entry): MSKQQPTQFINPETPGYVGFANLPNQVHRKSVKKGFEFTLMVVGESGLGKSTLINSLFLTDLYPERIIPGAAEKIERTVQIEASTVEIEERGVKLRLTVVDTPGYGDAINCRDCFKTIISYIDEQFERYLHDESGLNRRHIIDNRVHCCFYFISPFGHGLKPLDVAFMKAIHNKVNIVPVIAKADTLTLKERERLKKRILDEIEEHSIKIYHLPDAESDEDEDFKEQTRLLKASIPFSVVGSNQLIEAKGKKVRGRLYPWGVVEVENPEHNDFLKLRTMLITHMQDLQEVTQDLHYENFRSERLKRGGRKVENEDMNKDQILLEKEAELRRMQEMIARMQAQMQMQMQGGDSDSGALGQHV

Structure (SMILES): C#CCCCC1(CC/C=C\C/C=C\C/C=C\CCCC(=O)NCCO)N=N1 [AEA-DA, (5Z,8Z,11Z)-N-(2-hydroxyethyl)-14-(3-(pent-4-yn-1-yl)-3H-diazirin-3-yl)tetradeca-5,8,11-trienamide]
- Times observed [1]: 3
- Times observed [2]: 2
- Times observed [3]: 4
- Times observed [4]: 4
- Times observed [5]: 8
- Times observed [6]: 10
- Times observed [7]: 5
- Times observed [8]: 4
- Times observed [9]: 7
- Times observed [10]: 6
- Times observed [11]: 2
- Times observed [12]: 2
